IC50 data for 24 compounds are collected here from US9975874B2, “Factor XIa inhibitors” (Merck Sharp & Dohme Corp., priority 2014, dated 2018).

In general, pIC50 refers to the IC50 on a negative log10 scale, so that one unit is a factor of ten.

The target of assay [1] is purified human Factor XIa (Homo sapiens (Human), UniProt P03951). Kind of assay: Factor XIa Assay. The class given is biochemical. The note with it: substrate Z-Gly-Pro-Arg-AFC 100 μM, 40 pM enzyme, pH 7.4; read-out: FXIa IC50. As for the experimental part:
The effectiveness of a compound of the present invention as an inhibitor of Coagulation Factor XIa can be determined using a relevant purified serine protease, and an appropriate synthetic substrate. The rate of hydrolysis of the chromogenic or fluorogenic substrate by the relevant serine protease was measured both in the absence and presence of compounds of the present invention. Assays were conducted at room temperature or at 37° C. […] A decrease in the rate of fluorescence change in the presence of inhibitor is indicative of enzyme inhibition. Such methods are known to one skilled in the art. […]
Factor XIa determinations were made in 50 mM HEPES buffer at pH 7.4 containing 150 mM NaCl, 5 mM CaCl2, and 0.1% PEG 8000 (polyethylene glycol; JT Baker or Fisher Scientific). Determinations were made using purified human Factor XIa at a final concentration of 40 pM (Sekisui Diagnostics) and the synthetic substrate, Z-Gly-Pro-Arg-AFC, TFA salt (Sigma #C0980) at a concentration of 100 μM.
Times required to achieve equilibration between enzyme and inhibitor were determined in control experiments. Initial velocities of product formation in the absence (Vo) or presence of inhibitor (Vi) were measured. Assuming competitive inhibition, and that unity is negligible compared Km/[S], [I]/e, and [I]/e (where [S], [I], and e respectively represent the total concentrations, of substrate, inhibitor and enzyme), the equilibrium constant (Ki) for dissociation of the inhibitor from the enzyme can be obtained from the dependence of Vo/Vi on [I] shown in the following equation.

Assay [2] deals with purified Human plasma kallikrein (Homo sapiens (Human), UniProt P03952). Kind of assay: Kallikrein Assay. The class given is biochemical. The note with it: Plasma kallikrein; substrate Acetyl-K-P-R-AFC, 0.5 nM enzyme, pH 7.4; read-out: PK IC50. As for the experimental part: The effectiveness of a compound of the present invention as an inhibitor of Kallikrein can be determined using a relevant purified serine protease, and an appropriate synthetic substrate. The rate of hydrolysis of the chromogenic or fluorogenic substrate by the relevant serine protease was measured both in the absence and presence of compounds of the present invention. Assays were conducted at room temperature or at 37° C. […] A decrease in the rate of fluorescence change in the presence of inhibitor is indicative of enzyme inhibition. Such methods are known to one skilled in the art. The results of this assay are expressed as the inhibitory constant, Ki.
purified Human plasma kallikrein, sequence (P03952 391-638): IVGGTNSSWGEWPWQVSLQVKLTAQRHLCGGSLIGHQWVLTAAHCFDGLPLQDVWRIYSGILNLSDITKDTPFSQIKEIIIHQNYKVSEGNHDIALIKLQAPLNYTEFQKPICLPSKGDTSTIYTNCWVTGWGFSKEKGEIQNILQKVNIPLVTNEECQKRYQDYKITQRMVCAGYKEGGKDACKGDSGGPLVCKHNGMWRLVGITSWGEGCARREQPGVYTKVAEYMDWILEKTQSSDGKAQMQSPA
purified Human plasma kallikrein, sequence (P03952 20-390 partner): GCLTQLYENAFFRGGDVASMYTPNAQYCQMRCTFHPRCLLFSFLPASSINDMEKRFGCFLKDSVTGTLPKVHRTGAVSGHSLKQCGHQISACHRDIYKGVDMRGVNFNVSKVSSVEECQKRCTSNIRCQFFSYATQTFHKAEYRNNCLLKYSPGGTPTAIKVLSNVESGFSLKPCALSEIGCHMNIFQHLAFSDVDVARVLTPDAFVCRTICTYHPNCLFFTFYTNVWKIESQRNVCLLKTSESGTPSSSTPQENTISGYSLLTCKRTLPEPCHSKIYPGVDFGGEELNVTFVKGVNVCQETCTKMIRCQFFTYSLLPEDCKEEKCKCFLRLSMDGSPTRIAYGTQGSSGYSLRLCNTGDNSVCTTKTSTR
Kallikrein determinations were made in 50 mM HEPES buffer at pH 7.4 containing 150 mM NaCl, 5 mM CaCl2, and 0.1% PEG 8000 (polyethylene glycol; Fisher Scientific). Determinations were made using purified Human plasma kallikrein at a final concentration of 0.5 nM (Enzyme Research Laboratories) and the synthetic substrate, Acetyl-K-P-R-AFC (Sigma # C6608) at a concentration of […].
Times required to achieve equilibration between enzyme and inhibitor were determined in control experiments. The reactions were performed under linear progress curve conditions and fluorescence increase measured at 405 Ex/510 Em nm. […] IC50 was determined by inflection point from a four parameter logistic curve fit. Ki was calculated using the Cheng Prusoff equation, Ki=IC50/(1+([S]/Km)).

pIC50: −log10 of the molar value.

purified human Factor XIa, sequence (P03951 388-625): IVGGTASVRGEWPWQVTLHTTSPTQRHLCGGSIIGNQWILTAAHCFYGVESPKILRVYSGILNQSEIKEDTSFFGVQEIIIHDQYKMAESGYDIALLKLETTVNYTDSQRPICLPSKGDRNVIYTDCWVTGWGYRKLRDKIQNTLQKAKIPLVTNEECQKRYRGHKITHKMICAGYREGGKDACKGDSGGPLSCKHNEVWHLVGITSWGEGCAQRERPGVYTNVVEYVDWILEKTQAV
purified human Factor XIa, sequence (P03951 19-387 partner): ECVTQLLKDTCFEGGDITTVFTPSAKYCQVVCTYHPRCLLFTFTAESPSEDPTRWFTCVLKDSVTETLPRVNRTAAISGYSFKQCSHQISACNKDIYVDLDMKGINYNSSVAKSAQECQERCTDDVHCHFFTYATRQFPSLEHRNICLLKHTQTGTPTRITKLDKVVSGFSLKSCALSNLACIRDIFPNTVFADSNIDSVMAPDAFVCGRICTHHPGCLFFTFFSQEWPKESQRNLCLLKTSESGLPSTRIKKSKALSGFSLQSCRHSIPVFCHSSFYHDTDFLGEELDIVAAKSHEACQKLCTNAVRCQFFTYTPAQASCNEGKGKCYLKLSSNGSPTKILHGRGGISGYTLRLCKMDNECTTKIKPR

Take `COC(=O)Nc1ccc(-c2cccc(C(Cc3ccccc3)c3ccc(-c4cc(Cl)ccc4-n4cnnn4)c[n+]3[O-])c2)cc1` (racemic) [Example 1, (±)-5-(5-Chloro-2-(1H-tetrazol-1-yl)phenyl)-2-(1-(4′-((methoxycarbonyl)amino)-[1,1′-biphenyl]-3-yl)-2-phenylethyl)pyridine 1-oxide]: the pIC50 in assay [1] is 9.20; in assay [2], 7.61.

With `O=C(O)c1cccc(-c2cccc(C(Cc3ccccc3)c3ccc(-c4cc(Cl)ccc4-n4cnnn4)c[n+]3[O-])c2)c1` (racemic) [Example 7, 2-(1-(3′-carboxy-[1,1′-biphenyl]-3-yl)-2-phenylethyl)-5-(5-chloro-2-(1H-tetrazol-1-yl)phenyl)pyridine 1-oxide], the pIC50 in assay [1] is 9.34; in assay [2], 7.11.

Regarding `O=C(O)c1ccc(-c2cccc(C(Cc3ccccc3)c3ccc(-c4cc(Cl)ccc4-n4cnnn4)c[n+]3[O-])c2)cc1` (racemic) [Example 10], the pIC50 in assay [1] is 7.72; in assay [2], 6.15.

As to `O=C(O)c1cccc(-c2cc(F)cc(C(Cc3ccccc3)c3ccc(-c4cc(Cl)ccc4-n4cnnn4)c[n+]3[O-])c2)c1` (racemic) [Example 13], the values for the negative-log IC50 (pIC50) in assay [1] and in assay [2] were 9.46 and 7.92, respectively.

As to `O=C(O)c1cccc(-c2cccc(C(CC3CC3)c3ccc(-c4cc(Cl)ccc4-n4cnnn4)c[n+]3[O-])c2)c1` (racemic) [Example 17], the pIC50 in assay [1] was 7.92; in assay [2], 6.27.

As to `[O-][n+]1cc(-c2cc(Cl)ccc2-n2cnnn2)ccc1C(Cc1ccccc1)c1cccc(C2CCNCC2)c1` (racemic) [Example 20, 5-[5-chloro-2-(1H-tetrazol-1-yl)phenyl]-2-[2-phenyl-1-(3-piperidin-4-ylphenyl)ethyl] pyridine 1-oxide], the pIC50 in assay [1] was 6.67.

With `CNC(=O)N1CCC(c2cccc(C(Cc3ccccc3)c3ccc(-c4cc(Cl)ccc4-n4cnnn4)c[n+]3[O-])c2)CC1` (racemic) [Example 21, 4-[3-(1-{5-[5-chloro-2-(1H-tetrazol-1-yl)phenyl]-1-oxidopyridin-2-yl}-2-phenylethyl)phenyl]-N-methyl piperidine-1-carboxamide], the values for the negative-log IC50 (pIC50) in assay [1] and in assay [2] were 7.99 and 6.30, respectively.

With `CS(=O)(=O)N1CCC(c2cccc(C(Cc3ccccc3)c3ccc(-c4cc(Cl)ccc4-n4cnnn4)c[n+]3[O-])c2)CC1` (racemic) [Example 22, 5-[5-chloro-2-(1H-tetrazol-1-yl)phenyl]-2-(1-{3-[1-(methylsulfonyl)piperidin-4-yl]phenyl}-2-phenylethyl) pyridine 1-oxide], the negative logarithm of the IC50 (pIC50) in assay [1] is 7.23; in assay [2], 5.98.

In the case of `COC(=O)N1CCC(c2cccc(C(Cc3ccccc3)c3ccc(-c4cc(Cl)ccc4-n4cnnn4)c[n+]3[O-])c2)CC1` (racemic) [Example 23, methyl 4-[3-(1-{5-[5-chloro-2-(1H-tetrazol-1-yl)phenyl]-1-oxidopyridin-2-yl}-2-phenylethyl)phenyl] piperidine-1-carboxylate], the negative logarithm of the IC50 (pIC50) in assay [1] was 7.07.

In the case of `CCNC(=O)N1CCC(c2cccc(C(Cc3ccccc3)c3ccc(-c4cc(Cl)ccc4-n4cnnn4)c[n+]3[O-])c2)CC1` (racemic) [Example 24, 4-[3-(1-{5-[5-chloro-2-(1H-tetrazol-1-yl)phenyl]-1-oxidopyridin-2-yl}-2-phenylethyl)phenyl]-N-ethylpiperidine-1-carboxamide], the pIC50 in assay [1] is 7.72; in assay [2], 6.15.

As to `O=C(O)c1ccc(-c2cccc(C(Cc3ccccc3)c3ccc(-c4cc(Cl)ccc4-n4cnnn4)c[n+]3[O-])c2)cc1` (single isomer, unassigned) [Example 12], in assay [1], the pIC50 is 5.46.

Turning to `COC(=O)Nc1ccc(-c2cccc([C@@H](Cc3ccccc3)c3ccc(-c4cc(Cl)ccc4-n4cnnn4)c[n+]3[O-])c2)cc1` [Example 2, (R)-5-(5-Chloro-2-(1H-tetrazol-1-yl)phenyl)-2-(1-(4′-((methoxycarbonyl)amino)-[1,1′-biphenyl]-3-yl)-2-phenylethyl)pyridine 1-oxide], the pIC50 in assay [1] was 6.37.

In the case of `CS(=O)(=O)c1ccc(-c2cccc([C@@H](Cc3ccccc3)c3ccc(-c4cc(Cl)ccc4-n4cnnn4)c[n+]3[O-])c2)cc1` [Example 5], the negative-log IC50 (pIC50) in assay [1] is 5.00.

Consider `O=C(O)c1cccc(-c2cc(F)cc([C@@H](Cc3ccccc3)c3ccc(-c4cc(Cl)ccc4-n4cnnn4)c[n+]3[O-])c2)c1` [Example 15], for which, in assay [1], the pIC50 is 6.63.

Take `O=C(O)c1cccc(-c2cccc(C(CC3CC3)c3ccc(-c4cc(Cl)ccc4-n4cnnn4)c[n+]3[O-])c2)c1` (centres unmarked) [Example 19]: the negative logarithm of the IC50 (pIC50) in assay [1] is 6.00.

Turning to `CC(C)(C)OC(=O)N1CCC(c2cccc([C@@H](Cc3ccccc3)c3ccc(-c4cc(Cl)ccc4-n4cnnn4)c[n+]3[O-])c2)CC1` [Example 25, tert-butyl 4-{3-[(1R)-1-{5-[5-chloro-2-(1H-tetrazol-1-yl)phenyl]-1-oxidopyridin-2-yl}-2-phenylethyl]phenyl} piperidine-1-carboxylate], the negative logarithm of the IC50 (pIC50) in assay [1] is 6.00.

Regarding `CC(C)(C)OC(=O)N1CCC(c2cccc([C@H](Cc3ccccc3)c3ccc(-c4cc(Cl)ccc4-n4cnnn4)c[n+]3[O-])c2)CC1` [Example 26, tert-butyl 4-{3-[(1S)-1-{5-[5-chloro-2-(1H-tetrazol-1-yl)phenyl]-1-oxidopyridin-2-yl}-2-phenylethyl]phenyl} piperidine-1-carboxylate], the pIC50 in assay [1] is 6.61.

As to `CCNC(=O)N1CCC(c2cccc([C@@H](Cc3ccccc3)c3ccc(-c4cc(Cl)ccc4-n4cnnn4)c[n+]3[O-])c2)CC1` [Example 27, 4-{3-[(1R)-1-{5-[5-chloro-2-(1H-tetrazol-1-yl)phenyl]-1-oxidopyridin-2-yl}-2-phenylethyl]phenyl}-N-ethyl-piperidine-1-carboxamide], the pIC50 in assay [1] is 6.00.

As to `O=C(C(F)F)N1CCC(c2cccc([C@H](Cc3ccccc3)c3ccc(-c4cc(Cl)ccc4-n4cnnn4)c[n+]3[O-])c2)CC1` [Example 37, 5-[5-chloro-2-(1H-tetrazol-1-yl)phenyl]-2-[(1S)-1-{3-[1-(difluoroacetyl)piperidin-4-yl]phenyl}-2-phenylethyl] pyridine 1-oxide], the pIC50 in assay [2] was 6.27.

For `CCCOC(=O)N1CCC(c2cccc([C@H](Cc3ccccc3)c3ccc(-c4cc(Cl)ccc4-n4cnnn4)c[n+]3[O-])c2)CC1` [Example 41, propyl 4-{3-[(1S)-1-{5-[5-chloro-2-(1H-tetrazol-1-yl)phenyl]-1-oxidopyridin-2-yl}-2-phenylethyl]phenyl} piperidine-1-carboxylate], the pIC50 in assay [1] is 6.88.

As for `CC(C)COC(=O)N1CCC(c2cccc([C@H](Cc3ccccc3)c3ccc(-c4cc(Cl)ccc4-n4cnnn4)c[n+]3[O-])c2)CC1` [Example 42, 2-methylpropyl 4-{3-[(1S)-1-{5-[5-chloro-2-(1H-tetrazol-1-yl)phenyl]-1-oxidopyridin-2-yl}-2-phenylethyl]phenyl} piperidine-1-carboxylate], in assay [1], the negative logarithm of the IC50 (pIC50) is 6.25.

With `O=C(OCCF)N1CCC(c2cccc([C@H](Cc3ccccc3)c3ccc(-c4cc(Cl)ccc4-n4cnnn4)c[n+]3[O-])c2)CC1` [Example 43, 2-fluoroethyl 4-{3-[(1S)-1-{5-[5-chloro-2-(1H-tetrazol-1-yl)phenyl]-1-oxidopyridin-2-yl}-2-phenylethyl]phenyl} piperidine-1-carboxylate], in assay [1], the pIC50 is 7.20.

For `O=C(OCC1CC1)N1CCC(c2cccc([C@H](Cc3ccccc3)c3ccc(-c4cc(Cl)ccc4-n4cnnn4)c[n+]3[O-])c2)CC1` [Example 44, cyclopropyl-methyl 4-{3-[1S)-1-{5-[5-chloro-2-(1H-tetrazol-1-yl)phenyl]-1-oxidopyridin-2-yl}-2-phenylethyl] phenyl} piperidine-1-carboxylate], the negative-log IC50 (pIC50) in assay [1] is 6.73.

Consider `O=C(OCC(F)(F)F)N1CCC(c2cccc([C@H](Cc3ccccc3)c3ccc(-c4cc(Cl)ccc4-n4cnnn4)c[n+]3[O-])c2)CC1` [Example 46, 2,2,2-trifluoroethyl 4-{3-[(1S)-1-{5-[5-chloro-2-(1H-tetrazol-1-yl)phenyl]-1-oxidopyridin-2-yl}-2-phenylethyl]phenyl} piperidine-1-carboxylate], for which the negative-log IC50 (pIC50) in assay [1] was 6.32.
